The target in assay [1] is T1, hCOX-2 (Homo sapiens, UniProt P35354).
T1 construct: purchased Sigma Aldrich Química S.A., Alcobendas, Spain; host or cells: Sf21 insect cells infected with recombinant baculovirus
T1 sequence (P35354 18-604): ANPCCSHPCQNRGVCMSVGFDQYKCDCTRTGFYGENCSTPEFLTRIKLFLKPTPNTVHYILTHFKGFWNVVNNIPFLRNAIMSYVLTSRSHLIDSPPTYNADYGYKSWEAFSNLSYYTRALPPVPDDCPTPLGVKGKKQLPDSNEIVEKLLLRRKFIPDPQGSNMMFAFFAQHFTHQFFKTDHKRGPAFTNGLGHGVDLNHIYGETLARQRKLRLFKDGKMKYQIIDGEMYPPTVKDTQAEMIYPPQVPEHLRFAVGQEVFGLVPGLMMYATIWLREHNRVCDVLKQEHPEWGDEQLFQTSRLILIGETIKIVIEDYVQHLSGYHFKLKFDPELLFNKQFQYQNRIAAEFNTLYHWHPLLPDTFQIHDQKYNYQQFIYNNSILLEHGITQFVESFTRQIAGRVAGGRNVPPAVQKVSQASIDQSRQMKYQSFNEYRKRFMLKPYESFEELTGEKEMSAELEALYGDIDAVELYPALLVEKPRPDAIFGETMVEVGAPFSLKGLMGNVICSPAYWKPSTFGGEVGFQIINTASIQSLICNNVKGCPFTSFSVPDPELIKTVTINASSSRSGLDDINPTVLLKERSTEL
The experiment in a line: hCOX activity, TMPD oxidation with AA as substrate, microsomal recombinant hCOX-2 from Sf21 insect cells. The class given is biochemical. The following applies: for IC50: means ± SEM from five experiments, *** = no active at 500 μM, read-out: COX-2 (IC50); for Ratio, index of selectivity SI = [IC50(COX-2)]/[IC50(COX-1)]: COX-2 over COX-1, bounds use the highest concentration tested. The source says: (§1) The potential effects of the test drugs on total hCOX activity (bis-dioxygenase and peroxidase reactions) were investigated by measuring their effects on the oxidation of N,N,N′,N′-tetramethyl-p-phenylenediamine (TMPD) to […], using AA as common substrate for both hCOX-1 and hCOX-2, microsomal COX-2 prepared from insect cells (Sf21 cells) infected with recombinant baculovirus containing cDNA inserts for hCOX-2 (Sigma Aldrich Química S.A., Alcobendas, Spain), and COX-1 from human platelet microsomes (obtained as described in the above paragraph since, unlike hCOX-2, hCOX-1 is not available commercially).
(§2) Results shown in Table 3 are expressed as means ± SEM from five experiments. Means were compared by one-way analysis of variance (ANOVA) followed by Dunnett's post-hoc test.
(§3) This regression was performed using the data obtained with 4–6 different concentrations of each compound assayed, which inhibited the enzymatic activity of COX control isoform between 20 and 80%.

Assay [2] addresses T2, hCOX-1 (Homo sapiens, UniProt P23219).
T2 construct: COX-1 from human platelet microsomes; from tissue; host or cells: human platelets (microsomes) from donor buffy coat
Nature of the assay: hCOX activity, TMPD oxidation with AA as substrate, COX-1 from human platelet microsomes. The following applies: means ± SEM from five experiments; *** = no active at 500 μM. Format: biochemical. On the procedure: Washed human platelets were prepared from blood anticoagulated with citrate-phosphate-dextrose, which was obtained from Centro de Transfusion de Galicia (Santiago de Compostela, Spain).
The upper layer containing platelets (platelet-rich plasma) was removed and centrifuged at 1000 g for 18 min. The resulting platelet pellet was recovered, resuspended with washing buffer, and centrifuged again at 1000 g for 15 min. Finally, the platelet pellet from this step was resuspended in a modified Tyrode-HEPES buffer (HEPES 10 mM; NaCl 140 mM; KCl 3 mM; MgCl2 0.5 mM; NaHCO3 5 mM; glucose 10 mM; pH 7.4) to afford a cell density of 3–3.5·10^8 platelet/mL. The calcium concentration in the extracellular medium was 2 mM [13].
as §1, §2, §3

Assay [3] deals with COX-2. Further details: method as in PMID 17640617. The following applies: ELISA test; cited from earlier work. Background: In an ELISA, binding on a coated surface is turned into a signal by an enzyme label.

Residues, ends and D or L forms follow the SMILES beside them. Some results are limits rather than exact numbers.

T2 sequence (P23219 24-599): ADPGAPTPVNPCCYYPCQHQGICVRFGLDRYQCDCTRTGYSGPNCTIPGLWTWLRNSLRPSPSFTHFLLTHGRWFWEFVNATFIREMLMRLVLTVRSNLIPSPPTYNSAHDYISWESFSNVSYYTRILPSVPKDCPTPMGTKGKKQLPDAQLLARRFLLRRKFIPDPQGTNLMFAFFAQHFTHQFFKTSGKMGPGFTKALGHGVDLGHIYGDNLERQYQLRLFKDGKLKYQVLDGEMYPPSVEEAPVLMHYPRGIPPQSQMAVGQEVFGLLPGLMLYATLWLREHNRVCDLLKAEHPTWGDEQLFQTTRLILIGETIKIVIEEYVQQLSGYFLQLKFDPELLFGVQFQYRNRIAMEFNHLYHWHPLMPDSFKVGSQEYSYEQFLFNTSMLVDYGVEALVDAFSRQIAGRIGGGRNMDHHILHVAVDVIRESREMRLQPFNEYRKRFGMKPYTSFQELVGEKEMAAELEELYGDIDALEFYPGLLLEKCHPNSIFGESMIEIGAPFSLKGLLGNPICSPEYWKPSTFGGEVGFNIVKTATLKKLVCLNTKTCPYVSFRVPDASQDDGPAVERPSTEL

With `COc1ccc(-c2nc(C(=O)N3CCN(C)CC3)sc2-c2ccc(OC)cc2)cc1` [FR122047, reference compound], the figures for the IC50 in assay [1] and in assay [2] were > 500 µM and 93.8 ± 6.55 µM, respectively.

Consider `CSCC[C@H](NC(=O)CN)C(=O)N[C@@H](CC(=O)O)C(=O)O` [Peptide S1, Gly-Met-Asp] (H-Gly-Met-Asp-OH), for which, in assay [1], the “Ratio, index of selectivity SI = [IC50(COX-2)]/[IC50(COX-1)]” value (“Ratio, index of selectivity SI =” for short) is given as 0.6255 and the IC50 came to 94 ± 2.59 µM. Moreover, the IC50 in assay [2] was determined as 150 ± 2.34 µM.

For the molecule `C[C@H](NC(=O)[C@H](CCCNC(=N)N)NC(=O)[C@@H](N)CCC(=O)O)C(=O)O` [Peptide S2, ERA] (H-Glu-Arg-Ala-OH), in assay [1], the “Ratio, index of selectivity SI =” value is 0.8443 and the IC50 came out at 121 ± 2.33 µM. This molecule yielded an IC50 in assay [2] of 143 ± 2.57 µM.

`NCC(=O)N[C@@H](Cc1c[nH]cn1)C(=O)N[C@@H](CCC(=O)O)C(=O)O` [Peptide S3, Gly-His-Glu] (H-Gly-His-Glu-OH): in assay [1], the “Ratio, index of selectivity SI =” value turned out to be 0.6225 and the IC50 is 94.9 ± 2.12 µM. For the same molecule, half-maximal inhibition in assay [2] (IC50) was put at 152 ± 5.18 µM.

In the case of `N=C(N)NCCC[C@H](NC(=O)[C@H](CCC(=O)O)NC(=O)CN)C(=O)O` [Peptide S4, GER] (H-Gly-Glu-Arg-OH), in assay [1], the “Ratio, index of selectivity SI =” value turned out to be 0.8111 and the IC50 was determined as 80.6 ± 2.14 µM. In assay [2], this molecule gave an IC50 of 99.3 ± 1.14 µM.

For `N=C(N)NCCC[C@H](NC(=O)[C@@H](N)CC(=O)O)C(=O)N[C@@H](CS)C(=O)O` [Peptide S5, DRC] (H-Asp-Arg-Cys-OH), in assay [1], the “Ratio, index of selectivity SI =” value was determined as 0.6195 and the IC50 is 100 ± 2.33 µM. Moreover, half-maximal inhibition in assay [2] (IC50) required 161 ± 2.57 µM.

Consider `C[C@H](N)C(=O)N[C@@H](CCCNC(=N)N)C(=O)N[C@@H](C)C(=O)O` [Peptide S6, ARA] (H-Ala-Arg-Ala-OH), for which, in assay [1], the “Ratio, index of selectivity SI =” value was 0.8914. For the same molecule, the values for the IC50 in assay [1] and in assay [2] were 91.2 ± 2.41 µM and 102 ± 1.14 µM, respectively.

As for `N=C(N)NCCC[C@H](NC(=O)[C@H](CCC(=O)O)NC(=O)[C@@H]1CCCN1)C(=O)O` [Peptide S7, PER] (H-Pro-Glu-Arg-OH), the “Ratio, index of selectivity SI =” value in assay [1] came out at 0.8792. In addition, the IC50 in assay [1] worked out at 88.2 ± 3.01 µM; in assay [2], 100 ± 2.19 µM.

As for `CC[C@H](C)[C@H](NC(=O)[C@H](Cc1c[nH]cn1)NC(=O)[C@@H](N)CCCCN)C(=O)O` [Peptide S8, KHI] (H-Lys-His-Ile-OH), in assay [1], the “Ratio, index of selectivity SI =” value was determined as 0.7484 and the IC50 was 91.7 ± 2.98 µM. In assay [2], this molecule had an IC50 of 122 ± 3.78 µM.

Consider `C[C@H](N)C(=O)N[C@@H](CCC(=O)O)C(=O)N[C@@H](CCCNC(=N)N)C(=O)O` [Peptide S9, AER] (H-Ala-Glu-Arg-OH), for which the IC50 was 68.3 ± 5.43 µM in assay [1] and 221.6 ± 1.04 µM in assay [2].

`C[C@H](N)C(=O)NCC(=O)N[C@@H](CCCNC(=N)N)C(=O)O` [Peptide S10, AGR] (H-Ala-Gly-Arg-OH): in assay [1], the “Ratio, index of selectivity SI =” value was 0.7991. In addition, the IC50 was determined as 79.2 ± 2.15 µM in assay [1] and 99.1 ± 1.55 µM in assay [2].

On to WCS, for which the “inhibition of COX-2 activity” value in assay [3] is on record as “more than 85%”.

For orientation: IC50 means the concentration that gives 50% inhibition.

Values taken from PMC3600326, “Design, Synthesis, and Evaluation of New Tripeptides as COX-2 Inhibitors” (Journal of Amino Acids, 2013).
